From patent US6337064B1, “Manganese chelates with high relaxivity in serum” (Dibra S.p.A., priority 1998, dated 2002)
Where two headings read alike, the source gives them in different places.

Key:
[1] = Relaxivity in aqueous solution; format: physicochemical; details: for Relaxivity r1, aqueous solution: 0.15 M NaCl aqueous solution, 20 MHz, 39° C.; for Relaxivity r1 5 MHz, aqueous solution / Relaxivity r1 10 MHz, aqueous solution: same experimental conditions as Table 1
Experimental: (§1) The relaxivity of the compounds of the invention was measured both in saline solution and in human serum, reconstituted from Seronorm^(R) Human (Nycomed Pharma), lyophilized human serum, and the resulting data are summarized in TABLES 1 and 2.
(§2) TABLE 1 reports the relativity values measured for some compounds of the invention at 20 MHz; the other experimental conditions used are detailed following the table itself.
(§3) TABLE 2 comprises the results obtained from tests carried out under the same experimental conditions as above and in which r1 and r2 relaxivities were measured in serum and in aqueous solution at lower fields, precisely at 5 and 10 MHz. Said data evidence the significant increase in relaxivity obtained in serum already at 5 MHz and are indicative of the potential advantageous use of the compounds of the invention in M.R.I. diagnostic imaging at low fields.

[2] = Relaxivity in human serum reconstituted from Seronorm Human; format: physicochemical; details: for Relaxivity r1, Seronorm Human: calculated between 0 and 1 mM, 20 MHz, 39° C.; for Relaxivity r1 5 MHz, Seronorm / Relaxivity r1 10 MHz, Seronorm: same experimental conditions as Table 1
Experimental: as §1, §2, §3

[3] = 40° C.; 20 MHz; aqueous solution containing 20 mol % calcium ascorbate and 3 eq. of Na^+; cited from earlier work
[4] = biodistribution study; Investigative Radiology 1994, 29(2), S249-S250; cited from earlier work
[5] = in the presence of calcium and magnesium ions; MRM 1996, 35, 14-19; cited from earlier work

SMILES | Relaxivity r1, aqueous solution ([1]; pH 4) | Relaxivity r1, Seronorm Human ([2]; pH 7.0) | Relaxivity r1, aqueous solution [3] | Stability of the complex in vivo [4] | Stability of the complex in liver homogenate [5] | Relaxivity r1, aqueous solution ([1]; pH 7.3) | Relaxivity r1 5 MHz, aqueous solution [1] [mM⁻¹ s⁻¹] | Relaxivity r1 10 MHz, aqueous solution [1] [mM⁻¹ s⁻¹] | Relaxivity r1 5 MHz, Seronorm [2] [mM⁻¹ s⁻¹] | Relaxivity r1 10 MHz, Seronorm [2] [mM⁻¹ s⁻¹] | Relaxivity r1, Seronorm Human [2]
[Cl][Mn][Cl] [MnCl2, reference compound] | 6.59^(2) mM^−1 s^−1 | 53^(3) mM^−1 s^−1 | – | – | – | – | – | – | – | – | –
Cc1ncc(COP(=O)(O)O)c(CN(CCN(CC(=O)[O-])Cc2c(COP(=O)(O)O)cnc(C)c2O)CC(=O)[O-])c1O.[Mn+2].[Na].[Na].[Na] [Mn-DPDP] | – | – | 2.8^(5) L.mmol^−1.s^−1 | this complex dissociates, releasing manganese which accumulates in liver, pancreas and kidneys | dissociation | – | – | – | – | – | –
C[NH2+]C[C@H](O)[C@@H](O)[C@H](O)[C@H](O)CO.C[NH2+]C[C@H](O)[C@@H](O)[C@H](O)[C@H](O)CO.O=C([O-])CN(CCN(CC(=O)[O-])[C@H](Cc1ccccc1)C(=O)[O-])CC(=O)[O-].[Mn+2] [Example 1, Manganese complex of N-[2-[bis(carboxymethyl)-amino]ethyl]-N-(carboxymethyl)-D-phenylalanine salified with 1-deoxy-1-(methylamino)-D-glucitol (1:2)] | – | – | – | – | – | 2.93^6) mM^−1 s^−1 | 4.3 | 3.7 | 11.8 | 12.8 | 15^(7) mM^−1 s^−1
C[NH2+]C[C@H](O)[C@@H](O)[C@H](O)[C@H](O)CO.C[NH2+]C[C@H](O)[C@@H](O)[C@H](O)[C@H](O)CO.O=C([O-])CN(CCN(CC(=O)[O-])[C@@H](Cc1ccccc1)C(=O)[O-])[C@@H](Cc1ccccc1)C(=O)[O-].[Mn+2] [Example 2, Manganese complex of [N,N′-1,2-ethanediylbis [N-(carboxymethyl)-L-phenylalanine]] salified with 1-deoxy-1-(methylamino)-D-glucitol (1:2)] | – | – | – | – | – | 3.15^(6) mM^−1 s^−1 | 4.5 | 3.9 | 19.9 | 26.1 | 27^(7) mM^−1 s^−1
